Measurements published in ChEMBL document CHEMBL5357000, “Synthesis and structure-activity relationships of aryl fluorosulfate-based inhibitors as novel antitubercular agents” (Bioorg Med Chem Lett, 2024).
Converted amounts (≈) assume the structure as drawn.

How the values were obtained:
[1] = Cytotoxicity against human HepG2 cells assessed as reduction in cell viability measured after 3 days by CellTiterGlo Luminescent assay; format: toxicity, cell-based; details: time 3 day
[2] = Cytotoxicity against human HEK293T cells assessed as reduction in cell viability measured after 3 days by CellTiterGlo Luminescent assay; format: toxicity, cell-based, HEK-293T; details: time 3 day
[3] = test system: Mycobacterium tuberculosis; test: Antitubercular activity against Mycobacterium tuberculosis H37Rv assessed as inhibition of bacterial growth incubated for 7 days by Microdilution Alamar Blue assay; format: functional; details: 168 h, time 7 day
[4] = Plasma concentration in mouse at 20 mg/kg, po measured after 8 hrs; format: ADME, organism-based
[5] = Drug uptake in mouse lungs at 20 mg/kg, po measured after 8 hrs; format: ADME, organism-based; details: lung, read-out: Drug uptake

Compound	CC50 at 72 h [1] [µM]	CC50 at 72 h [2] [µM]	MIC [3] [µM]	concentration at 8 h [4] [ng/mL]	concentration at 8 h [5] [ng/mL]
O=S(=O)(F)Oc1ccc(OCc2c(F)cc(-n3cnnc3)cc2F)cc1	> 40	> 40	0.22 (≈ 0.0848 µg/mL)	–	–
CN(C)c1ncn(-c2cc(F)c(COc3ccc(OS(=O)(=O)F)cc3)c(F)c2)n1	> 40	> 40	0.31 (≈ 0.133 µg/mL)	–	–
CS(=O)(=O)Nc1ncn(-c2cc(F)c(COc3ccc(OS(=O)(=O)F)cc3)c(F)c2)n1	–	–	–	2120	1600
